Test system: Halo-PCNA U2OS cells
Test: Cell cycle block validated by machine-learning cell cycle phase assignment in Halo-PCNA cells
Assay type: cell-based
Conditions: 2 mM Thymidine (S-phase block) or (G2-M block)
Description: Time-lapse microscopy was conducted on Halo-PCNA labeled with 50 nM JFX650, to achieve near-saturating labeling, for 12 hours at 12 frames per hour (FIG. 21A). A machine learning model was then trained using both manually assigned cell stages and time-based progression resulting in both a G1, early S, mid S, late S, G2 and mitosis classifier as well as a regression prediction across the continuum of the cell cycle (FIG. 21B). The predicted cell cycle classification performed well as compared to manual annotation (FIG. 21C). Clear progression of individual cells through the cell cycle was observed when regression prediction was plotted across the time series (FIG. 21D). […] When cells in each cell phase were analyzed separately, it became apparent that the slow-moving population of PCNA was exclusively found in cell predicted to be in S-phase and that there was a marked decrease in the fast-moving population (FIG. 20E). Mean diffusion coefficient of PCNA was then measured for 4,081 individual cells to characterize heterogeneity across the cell population, which is described in large part by cell cycle (FIG. 20F).
Cell cycle as provided above can be automatically determined using an image (e.g., an image of JF549-labeled PCNA). […]

SMILES | fraction of cells assigned to cell cycle phases
O=C1NC(=NCc2cccs2)S/C1=C\c1ccc2ncccc2c1 [RO-3306] | expected enrichment in the fraction of cells assigned to the respective cell phases
Cc1cn([C@H]2C[C@H](O)[C@@H](CO)O2)c(=O)[nH]c1=O [thymidine] | expected enrichment in the fraction of cells assigned to the respective cell phases
